Here are results for 1 molecule from patent US12060379B2, “Plasmalogen derivatives” (Institute of Rheological Functions of Food, priority 2018, dated 2024).

The subject of experiment [1] is ERK (ERK1/2) phosphorylation in human neuroblastoma derived SH-SY5Y cell. As to the kind of experiment: ERK (ERK1/2) phosphorylation, Western Blotting, SH-SY5Y cells. Conditions: 5 μg/ml, 30 minutes, compared with s-Pls (FIG. 1). The experiment is classed as cell-based. The method, then:
By using a neuronal cell line, a study was performed with respect to enhanced phosphorylation activities of ERK (ERK1/2) with compounds according to the present invention.
Neuronal cell lines (mouse neuroblastoma derived NEURO2A cell and human neuroblastoma derived SH-SY5Y cell) were cultivated in DMEM medium containing 10% FBS (fetal bovine serum) for 24 hours. Subsequently, they were cultivated in DMEM medium containing 2% FBS for overnight (18 hours), which were then processed with 5 μg/ml of s-Pls (scallop-derived Pls), Compound REO-002 according to the present invention, and Compound REO-003 according to the present invention for 30 minutes respectively, and cells were subjected to Western Blotting assay. At this stage, the same amount of protein (50 μg of protein extracts) was subjected to an analysis to compare phosphorylation of ERK (ERK ½) (p-ERK).
Neuronal cell lines (human neuroblastoma derived SH-SY5Y cell) were cultivated in DMEM medium containing 10% FBS (fetal bovine serum) for 24 hours. Subsequently, they were cultivated in DMEM medium containing 2% FBS for overnight (18 hours), which were then processed with 1 μg/ml, 5 μg/ml of Compounds REO-004-007 according to the present invention for 30 minutes respectively, and cells were subjected to Western Blotting assay. […]

For experiment [2], the system named is ERK (ERK1/2) phosphorylation in mouse neuroblastoma derived NEURO2A cell. As to the kind of experiment: ERK (ERK1/2) phosphorylation, Western Blotting, NEURO2A cells. The experiment is classed as cell-based. Conditions: 5 μg/ml, 30 minutes, compared with s-Pls (FIG. 1).
Procedure: Neuronal cell lines (mouse neuroblastoma derived NEURO2A cell and human neuroblastoma derived SH-SY5Y cell) were cultivated in DMEM medium containing 10% FBS (fetal bovine serum) for 24 hours. […] At this stage, the same amount of protein (50 μg of protein extracts) was subjected to an analysis to compare phosphorylation of ERK (ERK ½) (p-ERK).
Neuronal cell lines (mouse neuroblastoma derived NEURO2A cell) were cultivated in DMEM medium containing 10% FBS (fetal bovine serum) for 24 hours. […] At this stage, the same amount of protein (50 μg of protein extracts) was subjected to an analysis to compare phosphorylation of ERK (ERK %) (p-ERK).

As to `CC/C=C\C/C=C\C/C=C\C/C=C\C/C=C\C/C=C\CCC(=O)O[C@@H](COCCCCCOc1ccccc1)COP(=O)(O)OCCN` [REO-003], the “enhanced phosphorylation activities of ERK (ERK1/2) (p-ERK)” value in experiment [1] and in experiment [2] was “exhibit enhanced phosphorylation activities of ERK (ERK½) equivalent to s-Pls” in each case.
